Test results published in patent US20240226232A9, “PROTEIN-BASED THERAPIES FOR OCULAR CONDITIONS” (The Regents of the University of Colorado, A Body Corporate, priority 2021, published 2024).

Key:
RGCs [1] = assay: Microbead mouse model of ocular hypertension, Brn3a-positive RGC count and βIII-tubulin staining after intravitreal peptide; type: in vivo, mice; conditions: 1 μg intravitreal once weekly for three weeks; for RGCs per mm^2 in retina after six weeks: control almost 3,400, vehicle less than 2,300
Description: The first ocular hypertension model was generated by initially anesthetizing mice via intraperitoneal injection of ketamine/xylazine supplemented with a topical application of 0.5% proparacaine hydrochloride. […] The cornea was gently punctured near the center using a 33G needle, and a small air bubble was injected to lift the anterior chamber of the eye. […] An antibiotic ointment was applied topically on the injected eye to prevent infection.
The intraocular pressure was measured weekly for six weeks using a tonometer. In particular, the mice were placed in an anesthetic chamber filled with a sustained flow of isoflurane (5% isoflurane at 2 L/minute mixed with oxygen). The tonometer took five measurements for each weekly check-in, eliminated the high and low readings, and generated an average intraocular pressure from the remaining readings for each mouse.
After six weeks of microbead injection, the eyes were dissected out and post-fixed with 4% PFA overnight at 4° C. The retinas were subsequently dissected out and washed three times in PBS before blocking (5% normal donkey serum and 1% Triton X-100 in PBS) overnight. Whole-mount retinas were then immunostained for Brn3a and βIII-tubulin (1:500 dilution), which are markers for RGCs and axonal cells, respectively. The retinas were then stained with Alexa Fluor 488 donkey anti-mouse or Texas red-conjugated goat anti-rabbit IgG (1:250 dilution). Four image fields from each retinal region were obtained using a 20× lens with a Zeiss confocal. The Brn3a-positive RGC numbers were counted (cells/mm^2) in the mid-peripheral regions from four quadrants of the whole-mounted retina using the ImageJ software (NIH). Contralateral uninjured eyes were used as a control.

RGCs [2] = assay: Silicone oil mouse model of ocular hypertension, Brn3a-positive RGC count after intravitreal peptide; type: in vivo, mice; conditions: single 1 μg intravitreal dose, day 28
Text: The second ocular hypertension model was generated by anesthetizing mice via intraperitoneal injection of ketamine/xylazine supplemented with topical application of 0.5% proparacaine hydrochloride. A 33G needle was tunneled through the cornea of each tested eye at the superotemporal side close to the limbus to reach the anterior chamber without injuring the lens or iris. […] After the injection, the upper eyelid was gently massaged to close the corneal incision and minimize oil leakage, and veterinary antibiotic ointment was applied to the surface of the injected eye to prevent infection.
After two weeks, the silicone oil droplet was removed. […] Veterinary antibiotic ointment was applied to the surface of the eye after oil removal.
The intraocular pressure of each eye was monitored once weekly until four weeks after silicone oil injection using a tonometer under anesthesia with a sustained flow of isoflurane (5% isoflurane at 2 L/minute mixed with oxygen). Two weeks after oil removal (day 28), retinas were removed and immunostained with Brn3a and βIII-tubulin antibodies to visualize and count the surviving RGCs.

[3] = system: Human retinal endothelial cells (HRECs); assay: Pro-inflammatory cytokine-mediated apoptosis of HRECs, cleaved caspase-3 Western blot; type: cell-based; conditions: 200 μg/mL peptide for three hours, then cytokine mixture (CM) 48 hours, CM only approx. 1:1
Description: The sequence of the first scrambled control peptide was […] (SEQ ID NO: 4), and the sequence of the second scrambled control peptide was […] (SEQ ID NO: 5). All test cells were then treated with a combination of pro-inflammatory cytokines (IFN-γ at 50 U/mL+TNF-α at 20 ng/mL+IL-1β at 20 ng/mL) for 48 hours.
Cell lysates were prepared using 1×RIPA buffer containing a protease inhibitor cocktail. Protein concentrations of the cell lysates were measured using the BCA method, and 25 μg of protein were used for immunoblotting. To measure HREC apoptosis, the cells were immunostained for active (cleaved) caspase-3, specifically, which is a marker for apoptosis. β-actin antibody staining was used as a control for measuring levels of a housekeeping protein and for calculating protein density compared to caspase-3 levels.

IL-1β = assay: I/R injury mouse model, retinal cytokine mRNA by quantitative real-time PCR; type: in vivo, mice; conditions: two days after I/R injury; 0.5 μg intravitreal
Description: (§1) To measure pro-inflammatory cytokine levels, mice were sacrificed, and retinas were dissected two days after I/R injury. Total RNA was then lysed from the retinas, two micrograms of RNA was reverse-transcribed to synthesize cDNA, and quantitative real-time PCR was performed. The sequences of the PCR primers were as follows: TNF-α forward primer—5′-[…]-3′ and reverse primer—[…]-3′; IL-1β forward primer—5′-5′-[…]-3′ and reverse primer—5′-[…]-3; IFN-γ forward primer—5′-[…]-3′ and reverse primer—5′-[…]-3′. The mRNA levels were analyzed using the comparative Ct method (2-ΔΔCT) and then normalized to β-actin (forward primer—5′-[…]-3′ and reverse primer—5′-[…]-3′).

TNF-α = assay: as above; type: in vivo, mice; conditions: two days after I/R injury; 0.5 μg intravitreal
Description: as §1

retinal capillary cells = assay: I/R injury mouse model, acellular retinal capillary count; type: in vivo, C57BL/6J mice; conditions: 0.5 μg intravitreal immediately after I/R injury and again after one week; day 14
Description: This ocular hypertension model was generated by initially anesthetizing 12-week-old C57BL/6J mice via intraperitoneal injection of ketamine/xylazine supplemented with a topical application of 0.5% proparacaine hydrochloride. To perform the I/R injury, the right eye was cannulated into the anterior chamber with a 33-gauge needle connected to an elevated pouch containing 250 ml of 0.9% NaCl solution. […] The PBS-injected eyes were used as vehicle controls. The contralateral eyes were used as additional controls.
After careful removal of the internal limiting membrane (ILM), retinas were placed in 12-well plates with Tris-HCl buffer at a pH of 7.8, and then shaken overnight to loosen the remaining RGCs. The retinas were then transferred to glass microscopy slides and the remaining neuronal tissues carefully dislodged through gentle agitation produced by a 20-μL pipette in Tris-HCl. Periodic acid Schiff (PAS) stain was used to visualize the isolated retinal capillary layer. An inverted fluorescence microscope was used to image the mounted capillaries, and the acellular capillaries from each treatment group were counted and analyzed.

| Substance | axonal degeneration (βIII-tubulin immunostaining) (RGCs [1]) | reduction in RGC death (compared to vehicle control group) (RGCs [1]) [%] | RGCs per mm^2 in retina after six weeks (RGCs [1]) | RGC death reduced by (compared to PBS-treated control 206) (RGCs [2]) [%] | density ratio of cleaved caspase-3 to β-actin [3] | reduction of the increase in IL-1β expression compared to the vehicle group (IL-1β) [fold] | reduction of the increase in TNF-α expression compared to the vehicle group (TNF-α) [fold] | number of acellular capillaries per retina (retinal capillary cells) |
| --- | --- | --- | --- | --- | --- | --- | --- | --- |
| G^73HFSVLLDVK(acetyl)HFSPEEIAVK^91 [peptain-3a] | inhibited axonal degeneration | 12 | about 3,000 RGCs per mm^2 | 14.2 | – | – | – | – |
| SLKEKRNFDVSEVKHVLFVDP [Scr-1] | – | – | – | – | greater density ratio | – | – | – |
| DRFSVNLDVKHFSPEELKVKV [peptain-1] | inhibited axonal degeneration | 4 | over 3,200 RGCs per mm^2 | 15.7 | ~0.5 | 4.6 | 6.2 | lower number of per-retina acellular capillaries |
| FEPSVRFSKVDHLVKENDLVK [Scr-2] | – | – | – | – | greater density ratio | – | – | – |
